{"source": "paper PMC6078987", "about": "“Molecular insights into antibiotic resistance - how a binding protein traps albicidin” (Nature Communications, 2018)", "key": {"[1]": {"system": "P. aeruginosa", "experiment": "MIC assay, clinical isolates", "assay_type": "cell-based", "settings": "Pseudomonas aeruginosa", "procedure": "(§1) The MIC assay was performed by Antiinfectives Intelligence GmbH (Rheinbach, Germany) using internationally standardized protocols and employing clinical isolates of K. oxytoca, K. pneumoniae, R. ornithologica, P. aeruginosa, A. baumannii and E. cloacae."}, "[2]": {"system": "K. oxytoca", "experiment": "MIC assay, clinical isolates", "assay_type": "cell-based", "settings": "Klebsiella oxytoca; four K. oxytoca strains", "procedure": "as §1"}, "[3]": {"target": "AlbAL (Klebsiella oxytoca, UniProt A0A9P0U153)", "sequence (A0A9P0U153 entry or part of it)": "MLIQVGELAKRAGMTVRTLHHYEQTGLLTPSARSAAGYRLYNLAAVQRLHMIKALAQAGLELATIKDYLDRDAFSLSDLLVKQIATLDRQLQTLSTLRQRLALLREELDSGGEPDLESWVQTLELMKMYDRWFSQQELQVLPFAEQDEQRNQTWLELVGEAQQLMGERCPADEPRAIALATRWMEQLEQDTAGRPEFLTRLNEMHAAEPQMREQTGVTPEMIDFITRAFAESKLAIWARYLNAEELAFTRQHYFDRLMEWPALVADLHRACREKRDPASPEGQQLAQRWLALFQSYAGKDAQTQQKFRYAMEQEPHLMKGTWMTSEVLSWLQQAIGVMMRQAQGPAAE", "experiment": "Fluorescence quenching binding assay with AlbAL", "procedure": "(§2) Fluorescence quenching measurements were performed by monitoring tryptophan fluorescence of AlbAS (20 nM), AlbAL (20 nM), AlbASNTD, and AlbASCTD (100 nM) on a FluoroMax 2 spectrometer from Horiba (Potsdam, Germany). The excitation wavelength was set to λexc = 280 nm. Emission spectra were recorded from λem = 290–450 nm with a scanning speed of 1 nm s^−1 and an integration time of 1 s. The excitation and emission slit widths were set to 8 and 4 nm, respectively. Proteins were solved in 50 mM sodium phosphate buffer with 150 mM NaCl and 0.01% DMSO at pH 6.8. All measurements were performed twice and the standard deviation is given for the Kd and the Hill factor n. Data evaluation was performed by integration of the emission band (318–410 nm for AlbAS, 316–412 nm for AlbAL, and 319–390 nm for AlbASNTD and AlbASCTD) for every titration step. The area under the curve (AUC) of the buffer blank (buffer with 0.01% DMSO) was subtracted from the measured titration data. The quenching factor was determined by subtraction of AUCs for each titration step from the AUC of the protein in the absence of ligand. For determination of the AlbAS– and AlbAL–albicidin Kd values, the data were fitted to Eq. (2).2 Y=Bmax[L]^n/Kdn+[L]^n where [L], n, and Bmax denote the total ligand concentration, the Hill coefficient, and the maximum binding capacity of the protein, respectively."}, "[4]": {"target": "AlbASCTD (Klebsiella oxytoca, UniProt Q8KRS7)", "sequence (Q8KRS7 entry or part of it)": "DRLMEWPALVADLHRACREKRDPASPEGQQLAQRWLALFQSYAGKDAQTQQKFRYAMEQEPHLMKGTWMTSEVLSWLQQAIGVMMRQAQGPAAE", "experiment": "Fluorescence quenching binding assay with AlbASCTD", "settings": "AlbASCTD 100 nM, n constrained to 1", "procedure": "as §2"}, "[5]": {"system": "AlbAS in competition with gyrase construct GyrBA59", "experiment": "NMR-based in vitro competition experiment of AlbAS and GyrBA59", "assay_type": "binding, E. coli", "settings": "30 µM each of GyrBA59, AlbAS and albicidin; MgCl2, ATP, pBR322", "procedure": "For the competition experiment with the DNA gyrase construct GyrBA59, 1.7 mM ATP was incubated with 3.4 mM MgCl2 for 10 min. Subsequently, 30 µM GyrBA59 and 3 µg supercoiled pBR322 plasmid DNA (Inspiralis) were added and incubated for another 10 min. Finally, 30 µM ^15N-labeled AlbAS were added to the mixture followed by 30 µM albicidin (10% D2O and 5% DMSO final concentration). Owing to the low protein concentrations (to achieve a 1:1 ratio of gyrase and AlbAS), a ^1H-^15N band-selective optimized flip-angle short-transient heteronuclear multiple quantum coherence (SOFAST HMQC)[44] experiment was performed. The ^1H-^15N SOFAST HMQC was recorded with 2048 scans and with acquisition times of 45 and 38 ms for the ^1H and ^15N dimensions, respectively. Measurements were performed at 303.2 K. The control experiment was performed under the same conditions but without the addition of MgCl2, ATP, pBR322 plasmid DNA, and GyrBA59."}}, "data": [{"molecule": "COc1c(NC(=O)c2ccc(NC(=O)c3ccc(NC(=O)[C@H](CC#N)NC(=O)c4ccc(NC(=O)/C(C)=C/c5ccc(O)cc5)cc4)cc3)c(OC)c2O)ccc(C(=O)O)c1O", "note": "[albicidin]", "values": [{"measurement": "MIC", "setting": "[1]", "value": "≥ 64", "unit": "µg/mL"}, {"measurement": "MIC", "setting": "[2]", "value": "≥ 64", "unit": "µg/mL"}, {"measurement": "Kd", "setting": "[3]", "value": "7.4 ± 0.9", "unit": "nM"}, {"measurement": "Hill coefficient, n", "setting": "[3]; AlbAL 20 nM, fluorescence quenching", "value": "2.0 ± 0.2"}, {"measurement": "Kd", "setting": "[4]", "value": "600 ± 100", "unit": "nM"}, {"measurement": "competition between AlbAS and GyrBA59 for the ligand (in words)", "setting": "[5]", "value": "AlbAS fully populated the albicidin-bound state"}]}]}
